Like-named read-outs stand apart in the source and are kept apart here.
What was measured:
Plasmodium falciparum = tested on: Plasmodium falciparum; design: method as in earlier work; details: in vitro, ref 27 (Nogueira et al.); cited from earlier work
Leishmania donovani = tested on: Leishmania donovani; design: method as in earlier work; details: in vitro, ref 27 (Nogueira et al.); cited from earlier work
L6 cells = tested on: L6 cells; design: method as in earlier work; details: in comparison with L6 cells; ref 27 (Nogueira et al.); cited from earlier work
LmPTR1 = target: T1, LmPTR1 (Leishmania major, UniProt Q01782); experiment: LmPTR1 enzyme inhibition assay (spectrophotometric, NADPH oxidation at 340 nm); type: biochemical; details: for IC50: NADPH 250 µM, pH 6.0, 30 °C, 0.1–128 µM
T1 construct: made in house
T1 sequence (Q01782 1-288): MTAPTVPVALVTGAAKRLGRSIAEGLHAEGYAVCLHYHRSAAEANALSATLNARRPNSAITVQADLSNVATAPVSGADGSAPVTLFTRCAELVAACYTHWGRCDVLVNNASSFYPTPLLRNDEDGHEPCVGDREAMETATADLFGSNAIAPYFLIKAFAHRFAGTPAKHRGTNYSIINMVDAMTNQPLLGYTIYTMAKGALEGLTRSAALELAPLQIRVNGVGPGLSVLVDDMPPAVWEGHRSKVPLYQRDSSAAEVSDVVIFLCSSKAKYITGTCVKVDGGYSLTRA
Experimental: The selected synthetic diterpene esters 135, 301, 302, 301a, and 302a were tested in vitro to experimentally determine their abilities to inhibit the enzymatic activity of LmPTR1 as an extension of the results provided by the in silico screening. […] The IC50 was then calculated for the tested diterpenes, and these values were used to calculate the apparent inhibitory constant (Ki^app) (Table 3) using the Cheng–Prusoff equation, assuming reversible competitive inhibition and 1:1 stoichiometry. PMA, a known PTR1 inhibitor, was used as a positive control. […] Therefore, a reasonable inference based on this small set of compounds is that the presence of a p-hydroxyl group at the phenylpropanoid moiety might favor inhibitory activity, whereas a 9β-hydroxyl group at the diterpene moiety has a negative influence on LmPTR1 inhibition.
Recombinant LmPTR1 enzyme was obtained, purified, and kinetically characterized, as reported previously. The in vitro assessment of selected diterpenes (i.e., 135, 301, 302, 301a, and 302a) for LmPTR1 inhibitory activity was performed through the spectrophotometric monitoring of the enzymatic activity under balanced conditions: LmPTR1 (30 µg), 7,8-dihydro-L-biopterin (DHB, 20 µM), sodium citrate buffer (20 mM, pH 6.0), 30 °C, and a final assay volume of 600 µL. Each reaction was started by the addition of 250 µM NADPH. Absorbance was monitored at 340 nm (i.e., oxidation of NADPH to NADP+) for 240 s, and the resulting profile was used to measure the initial reaction rate (IRR) through the respective slope by linear regression. All recordings were performed in triplicate. PMA was used as the positive control. The resulting IRR values were used to calculate the % inhibition, as 100 − (Ri/Rc × 100), where Ri is the IRR in the presence of the inhibitor and Rc is the IRR in the absence of inhibitors (1% DMSO v/v final concentration). The % inhibition for at least five concentrations (range: 0.1–128 µM) for each test compound (diterpenes and PMA) were calculated, and concentration-response curves (% inhibition vs. Log[inhibitor]) were obtained by non-linear regression to determine the IC50 using GraphPad Prism 5.0 (GraphPad, San Diego, CA, USA). Finally, Ki^app values were calculated using the Cheng–Prusoff equation for competitive inhibition, assuming a 1:1 stoichiometry and that the inhibitor-binding reactions are reversible: Ki^app = IC50/(1 + [S]/Km), where [S] is the substrate (DHB) concentration and Km is the Michaelis constant. The substrate Km was calculated during the kinetic characterization of purified, recombinant LmPTR1.

L. major [1] = experiment: ChEMBL dataset of pIC50 values against L. major used for the RF model (Table S1); type: cell-based, Leishmania major; note: call rule not given here
L. major [2] = tested on: L. major; design: method as in ChEMBL; details: ref ChEMBL, cited from earlier work
[3] = recombinant LmPTR1, DHB 20 µM, read-out: IC50
[4] = Active/Inactive class assigned to the ChEMBL pIC50 value for Random forest model construction, ref ChEMBL
[5] = ChemBL structures with pIC50 values used for Random forest model construction, L. major
[6] = Active/Inactive class assigned to ChemBL structures for Random forest model construction (Table S1)
[7] = ChemBL structures with pIC50 values used for Random forest model construction (Table S1)

| SMILES | Outcome (L. major [1]; [4]) | pIC50 Value (L. major [2]; [5]) | also measured |
| --- | --- | --- | --- |
| C=C1C[C@@]23CC[C@@H]4[C@](C)(CO)[C@H](O)CC[C@@]4(C)[C@@H]2CC[C@@H]1C3 (single isomer, unassigned; ent-3) [ent-3-α-hydroxy-kaur-16-en-18-ol] |  |  | IC50 (Plasmodium falciparum): 3.5 µM; IC50 (Leishmania donovani): 2.5 µM; Selectivity index, SI (L6 cells): > 10 |
| C=C1CC23CCC4C(C)(C(=O)O)C(OC(=O)C=Cc5ccc(O)cc5)CCC4(C)C2(O)CCC1C3 (stereo not drawn) [301a, 3α-p-coumaroyloxy-9β-hydroxy-ent-kaur-16-en-19-oic Acid] |  |  | Ki (LmPTR1; read-out: Ki^app): 5.08 µM; IC50 (LmPTR1; [3]): 23.2 µM |
| C=C1CC23CCC4C(C)(CCC(OC(=O)C=Cc5ccc(O)cc5)C4(C)C(=O)O)C2CCC1C3 (stereo not drawn) [302a, 3α-p-coumaroyloxy-ent-kaur-16-en-19-oic acid] |  |  | improvement of inhibitory activity versus 302 (LmPTR1; 3α-p-coumaroyloxy instead of 3α-cinnamoyloxy): approximately 60%; Ki (LmPTR1; read-out: Ki^app): 1.33 µM; IC50 (LmPTR1; [3]): 6.1 µM |
| COc1cc(/C=N\NC(N)=S)ccc1OCc1cn(CC(=O)c2ccc(Cl)cc2)nn1 [CHEMBL4164916] | Active | 5.27 |  |
| COc1ccc(/C=N/NC(N)=S)cc1OCc1cn(-c2ccc(S(N)(=O)=O)cc2)nn1 [CHEMBL4165645] |  |  | Outcome (L. major [1]; [6]): Active; pIC50 Value (L. major [2]; [7]): 5.36 |
| C/C(=N/NC(N)=S)c1ccc(OCc2cn(CC(=O)c3ccc(Br)cc3)nn2)cc1 [CHEMBL4166113] |  |  | Outcome (L. major [1]; [6]): Active; pIC50 Value (L. major [2]; [7]): 6.00 |
| COc1ccc(/C=N/NC(N)=S)cc1OCc1cn(CC(=O)c2ccc(F)cc2)nn1 [CHEMBL4167146] |  |  | Outcome (L. major [1]; [6]): Active; pIC50 Value (L. major [2]; [7]): 5.32 |
| C/C(=N/NC(N)=S)c1ccc(OCc2cn(-c3ccc(C(=O)O)cc3)nn2)cc1 [CHEMBL4169531] | Active | 5.13 |  |
| COc1cc(/C=N/NC(N)=S)ccc1OCc1cn(CC(=O)c2ccc(F)cc2)nn1 [CHEMBL4170543] | Active | 5.16 |  |
| COc1ccc(/C=N\NC(N)=S)cc1OCc1cn(CC(=O)c2ccccc2)nn1 [CHEMBL4171583] |  |  | Outcome (L. major [1]; [6]): Active; pIC50 Value (L. major [2]; [7]): 5.36 |
| COc1ccc(/C=N/NC(N)=S)cc1OCc1cn(CC(=O)c2ccc(C)cc2)nn1 [CHEMBL4173573] |  |  | Outcome (L. major [1]; [6]): Active; pIC50 Value (L. major [2]; [7]): 5.66 |
| COc1cc(/C=N/NC(N)=S)ccc1OCc1cn(-c2ccc(C(=O)O)cc2)nn1 [CHEMBL4173978] | Active | 5.24 |  |
| COc1ccc(/C=N/NC(N)=S)cc1OCc1cn(-c2ccc(C(=O)O)cc2)nn1 [CHEMBL4174032] |  |  | Outcome (L. major [1]; [6]): Active; pIC50 Value (L. major [2]; [7]): 5.30 |
| COc1ccc(/C=N\NC(N)=S)cc1OCc1cn(CC(=O)c2ccc(Br)cc2)nn1 [CHEMBL4175020] | Active | 5.24 |  |
| COc1cc(/C=N\NC(N)=S)ccc1OCc1cn(CC(=O)c2ccccc2)nn1 [CHEMBL4175538] | Active | 5.27 |  |
| C/C(=N/NC(N)=S)c1ccc(OCc2cn(-c3ccc(S(N)(=O)=O)cc3)nn2)cc1 [CHEMBL4177394] | Active | 5.08 |  |
| CC1(C)C2CCC1(C)[C@H](OC(=O)/C=C/c1ccc(O)c(O)c1)C2 (stereo partly shown) [CHEMBL4177500] | Inactive | 4.31 |  |
| CC(C)N1CN(CC(=O)O)CSC1=S [CHEMBL4277354] | Inactive | 3.86 |  |
| CCCCN1CSC(=S)N(CC(=O)O)C1 [CHEMBL4278695] | Inactive | 4.44 |  |
| CCCN1CN(CC(=O)OCC)CSC1=S [CHEMBL4279218] | Inactive | 3.97 |  |

| SMILES | Outcome (L. major [1]; [4]) | pIC50 Value (L. major [2]; [5]) | also measured |
| --- | --- | --- | --- |
| CC(c1ccccc1)N1CN(CCO)CSC1=S (stereo not shown) [CHEMBL4279631] | Inactive | 4.49 |  |
| CCCN1CSC(=S)N(CC(=O)O)C1 [CHEMBL4282164] | Inactive | 4.16 |  |
| CC(C)N1CSC(=S)N(C(C)c2ccccc2)C1 (stereo not shown) [CHEMBL4283106] | Inactive | 4.67 |  |
| CCCCN1CN(CC(=O)O)CSC1=S [CHEMBL4283328] | Inactive | 4.61 |  |
| CCN1CN(CC(=O)O)CSC1=S [CHEMBL4284377] | Inactive | 4.48 |  |
| CCN1CSC(=S)N(C(C)c2ccccc2)C1 (stereo not shown) [CHEMBL4286479] | Inactive | 4.34 |  |
| CC(c1ccccc1)N1CN(CC(=O)O)CSC1=S (stereo not shown) [CHEMBL4286679] | Inactive | 4.51 |  |
| CCCCN1CSC(=S)N(C(C)c2ccccc2)C1 (stereo not shown) [CHEMBL4287541] | Inactive | 4.67 |  |
| CCCN1CN(CC(=O)O)CSC1=S [CHEMBL4287780] | Inactive | 4.41 |  |
| CCCN1CN(CC(=O)OCc2ccccc2)CSC1=S [CHEMBL4289905] | Inactive | 4.03 |  |
| O=C(O)CN1CN(CCO)CSC1=S [CHEMBL4290046] | Inactive | 4.40 |  |
| CCCN1CSC(=S)N(C(C)c2ccccc2)C1 (stereo not shown) [CHEMBL4290968] | Inactive | 4.62 |  |
| COc1ccc(CN2CN(CC(=O)O)CSC2=S)cc1OC [CHEMBL4291183] | Inactive | 4.81 |  |
| CCCCN1CN(CC(=O)OCC)CSC1=S [CHEMBL4294357] | Inactive | 4.44 |  |
| CCCN1CN(CC(=O)OC)CSC1=S [CHEMBL4294585] | Inactive | 3.69 |  |
| CCN1CSC(=S)N(CC(=O)O)C1 [CHEMBL4294782] | Inactive | 4.34 |  |
| CCc1nc(N)nc(N)c1-c1ccc(Cl)cc1 [PMA, pyrimethamine, reference compound] |  |  | Ki (LmPTR1): 0.24 µM; IC50 (LmPTR1; IC50, recombinant LmPTR1, DHB 20 µM): 1.11 µM |
| C=C1C[C@@]23CC[C@@H]4[C@](C)(C(=O)O[C@H]5C=C(C)[C@@H](O)C[C@@H]5C(C)C)CCC[C@@]4(C)C2CC[C@@H]1C3 (stereo partly drawn) [compound 135, 2β-hydroxy-menth-6-en-5β-yl ent-kaurenoate] |  |  | Ki (LmPTR1; read-out: Ki^app): 1.88 µM; IC50 (LmPTR1; [3]): 8.6 µM |
| C=C1C[C@@]23CCC4[C@](C)(C(=O)O)[C@H](OC(=O)/C=C/c5ccccc5)CC[C@@]4(C)[C@]2(O)CC[C@@H]1C3 (stereo partly drawn) [compound 301, 3α-Cinnamoyloxy-9β-hydroxy-ent-kaur-16-en-19-oic Acid] |  |  | Ki (LmPTR1; read-out: Ki^app): 4.64 µM; IC50 (LmPTR1; [3]): 21.2 µM |
| C=C1C[C@@]23CCC4[C@](C)(C(=O)O)[C@H](OC(=O)/C=C/c5ccccc5)CC[C@@]4(C)[C@@H]2CC[C@@H]1C3 (stereo partly drawn) [compound 302, 3α-cinnamoyloxy-ent-kaur-16-en-19-oic acid] |  |  | Ki (LmPTR1; read-out: Ki^app): 2.1 µM; IC50 (LmPTR1; [3]): 9.6 µM |

From paper PMC8196580, “Identification of Kaurane-Type Diterpenes as Inhibitors of Leishmania Pteridine Reductase I” (Molecules, 2021)
